Results as given in PubChem BioAssay AID192 (DTP/NCI, 2004).
Where “and” joins values, the source holds several entries; their conditions need not be identical. Identical values can stand only once. Inconclusive results and toxic doses are left out. How the source made its calls: active means survival T/C of 150% or more; inactive means T/C below 125% in these data. Peptide text beside a SMILES is read from it. * marks the point of attachment. Cbz = O=C(OCc1ccccc1)*

System: BDF1 mice, B16 melanoma ip, median survival T/C
Experiment: NCI In Vivo Anticancer Drug Screen. Data for tumor model B16 Melanoma (intraperitoneal) in B6D2F1 (BDF1) mice
Conditions: endpoint: median survival time, higher = longer survival
Method in brief: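 In this screen, activity was judged from survival or tumor size in treated versus vehicle-treated tumor-bearing mice, reported as T/C.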

[1] = dose: 50.0 mg/kg/injection, schedule: Q01DX009 (ip), vehicle: saline with Tween-80
[2] = dose: 100.0 mg/kg/injection, schedule: Q01DX009 (ip), vehicle: saline with Tween-80
[3] = dose: 200.0 mg/kg/injection, schedule: Q01DX009 (ip), vehicle: saline with Tween-80
[4] = dose: 12.5 mg/kg/injection, schedule: Q01DX009 (ip), vehicle: Klucel (hydroxypropylcellulose) (HPC)
[5] = dose: 25.0 mg/kg/injection, schedule: Q01DX009 (ip), vehicle: Klucel (hydroxypropylcellulose) (HPC)
[6] = dose: 100.0 mg/kg/injection, schedule: Q01DX009 (ip), vehicle: Klucel (hydroxypropylcellulose) (HPC)
[7] = dose: 200.0 mg/kg/injection, schedule: Q01DX009 (ip), vehicle: Klucel (hydroxypropylcellulose) (HPC)
[8] = dose: 100.0 mg/kg/injection, schedule: Q04DX003 (ip), vehicle: Klucel (hydroxypropylcellulose) (HPC)
[9] = dose: 200.0 mg/kg/injection, schedule: Q04DX003 (ip), vehicle: Klucel (hydroxypropylcellulose) (HPC)
[10] = dose: 12.5 mg/kg/injection, schedule: Q01DX009 (ip), vehicle: saline with Tween-80
[11] = dose: 25.0 mg/kg/injection, schedule: Q01DX009 (ip), vehicle: saline with Tween-80
[12] = dose: 50.0 mg/kg/injection, schedule: Q01DX009 (ip), vehicle: Klucel (hydroxypropylcellulose) (HPC)
[13] = dose: 400.0 mg/kg/injection, schedule: Q04DX003 (ip), vehicle: Klucel (hydroxypropylcellulose) (HPC)

Measured: T/C

CN(Cc1cnc2nc(N)nc(N)c2n1)c1ccc(C(=O)N[C@@H](CCC(=O)O)C(=O)O)cc1
inactive: dose: 0.25 mg/kg/injection, schedule: Q01DX009 (ip), vehicle: saline 102 % of control | dose: 0.25 mg/kg/injection, schedule: Q01DX017 (ip), vehicle: saline 107 % of control | dose: 0.37 mg/kg/injection, schedule: Q01DX009 (ip), vehicle: sodium bicarbonate 93 % of control and 103 % of control | dose: 0.5 mg/kg/injection, schedule: Q01DX009 (ip), vehicle: sodium bicarbonate 92 % of control and 103 % of control (2×) | dose: 0.5 mg/kg/injection, schedule: Q01DX017 (ip), vehicle: saline 104 % of control | dose: 0.75 mg/kg/injection, schedule: Q01DX009 (ip), vehicle: sodium bicarbonate 104 % of control and 105 % of control | dose: 1.0 mg/kg/injection, schedule: Q01DX017 (ip), vehicle: saline 111 % of control | dose: 1.5 mg/kg/injection, schedule: Q01DX009 (ip), vehicle: saline 92 % of control | dose: 1.5 mg/kg/injection, schedule: Q01DX009 (ip), vehicle: sodium bicarbonate 98 % of control and 106 % of control | dose: 2.0 mg/kg/injection, schedule: Q01DX017 (ip), vehicle: saline 88 % of control | dose: 2.0 mg/kg/injection, schedule: Q04DX005 (ip), vehicle: saline 107 % of control | dose: 3.0 mg/kg/injection, schedule: Q01DX009 (ip), vehicle: sodium bicarbonate 94 % of control and 100 % of control | dose: 4.0 mg/kg/injection, schedule: Q04DX003 (ip), vehicle: saline 113 % of control | dose: 4.0 mg/kg/injection, schedule: Q04DX005 (ip), vehicle: saline 109 % of control | dose: 6.0 mg/kg/injection, schedule: Q01DX009 (ip), vehicle: sodium bicarbonate 90 % of control | dose: 8.0 mg/kg/injection, schedule: Q04DX003 (ip), vehicle: saline 109 % of control | dose: 8.0 mg/kg/injection, schedule: Q04DX005 (ip), vehicle: saline 104 % of control | dose: 16.0 mg/kg/injection, schedule: Q04DX003 (ip), vehicle: saline 109 % of control | dose: 16.0 mg/kg/injection, schedule: Q04DX005 (ip), vehicle: saline 97 % of control | dose: 32.0 mg/kg/injection, schedule: Q01DX001 (ip), vehicle: saline 121 % of control | dose: 32.0 mg/kg/injection, schedule: Q04DX003 (ip), vehicle: saline 106 % of control | dose: 128.0 mg/kg/injection, schedule: Q01DX001 (ip), vehicle: saline 123 % of control

CC(C)Nc1ncnc2[nH]ncc12
inactive: dose: 1.0 mg/kg/injection, schedule: Q01DX009 (ip), vehicle: Klucel (hydroxypropylcellulose) (HPC) 96 % of control | dose: 2.0 mg/kg/injection, schedule: Q01DX009 (ip), vehicle: Klucel (hydroxypropylcellulose) (HPC) 105 % of control | dose: 4.0 mg/kg/injection, schedule: Q01DX009 (ip), vehicle: Klucel (hydroxypropylcellulose) (HPC) 94 % of control | dose: 8.0 mg/kg/injection, schedule: Q01DX009 (ip), vehicle: Klucel (hydroxypropylcellulose) (HPC) 102 % of control

CSCCC(NC(=O)C(Cc1ccccc1)NC(=O)OCc1ccccc1)C(=O)O (stereo not drawn) (Cbz-Phe-Met-OH; configuration not given here)
inactive: [1] 97 % of control | [2] 93 % of control

CCc1cc(C)cc(OC(=O)Nc2cccc(Cl)c2)c1
inactive: [2] 90 % of control | [3] 92 % of control | dose: 400.0 mg/kg/injection, schedule: Q01DX009 (ip), vehicle: saline with Tween-80 86 % of control

CC(=O)NC(Cc1cc(I)c(OC(C)=O)c(I)c1)C(=O)O (stereo unspecified)
inactive: [1] 100 % of control | [2] 97 % of control | [3] 90 % of control

CN(C1CCCCC1)C1CCCCC1
inactive: dose: 6.25 mg/kg/injection, schedule: Q01DX009 (ip), vehicle: Klucel (hydroxypropylcellulose) (HPC) 92 % of control | [4] 92 % of control | [5] 94 % of control

O=C(CN1CCCCC1)Nc1cccc(C(F)(F)F)c1
inactive: [6] 87 % of control | [7] 89 % of control

O=C1C(=C(C(F)(F)F)C(F)(F)F)CCc2ccccc21
inactive: dose: 50.0 mg/kg/injection, schedule: Q04DX003 (ip), vehicle: Klucel (hydroxypropylcellulose) (HPC) 95 % of control | [8] 95 % of control | [9] 100 % of control

CCCCC(NC(=O)OC(C)(C)C)C(=O)O (stereo unspecified)
inactive: [6] 114 % of control | [7] 104 % of control | dose: 400.0 mg/kg/injection, schedule: Q01DX009 (ip), vehicle: Klucel (hydroxypropylcellulose) (HPC) 100 % of control

CC(CN(C)C)CN1c2ccccc2Sc2ccccc21 (stereo unspecified)
inactive: [10] 104 % of control | [11] 101 % of control

CCOc1ccc(N2CSC(=S)N(c3ccc(OCC)cc3)C2)cc1
inactive: [12] 99 % of control | [6] 94 % of control | [7] 88 % of control

COc1ccc(N=C(C(=Nc2ccc(OC)cc2)c2ccccc2)c2ccccc2)cc1
inactive: [8] 102 % of control | [9] 103 % of control | [13] 101 % of control

COc1cc(O)c(Cc2ccccc2O)c(O)c1C(=O)CCc1ccccc1
inactive: dose: 1.25 mg/kg/injection, schedule: Q01DX009 (ip), vehicle: other 100 % of control | dose: 2.5 mg/kg/injection, schedule: Q01DX009 (ip), vehicle: other 100 % of control | dose: 5.0 mg/kg/injection, schedule: Q01DX009 (ip), vehicle: other 92 % of control | dose: 10.0 mg/kg/injection, schedule: Q01DX009 (ip), vehicle: other 100 % of control

Cc1ccc(C(C)(C)Cl)cc1O
inactive: [10] 117 % of control | [11] 112 % of control | [1] 96 % of control

CCCCN(CCCC)c1ccc(C(=O)O)cc1
inactive: [1] 102 % of control | [2] 94 % of control | [3] 103 % of control

COC1C=COC2(C)Oc3c(C)c(O)c4c(c3C2=O)/C(=N/C2CCC(O)OC2C)C=C(NC(=O)/C(C)=C\C(=O)C2CC2C(O)C(C)C(O)C(C)C(OC(C)=O)C1C)C4=O (stereo unspecified)
inactive: dose: 4.6 mg/kg/injection, schedule: Q01DX009 (ip), vehicle: saline with Tween-80 98 % of control | dose: 18.5 mg/kg/injection, schedule: Q01DX009 (ip), vehicle: saline with Tween-80 97 % of control

CNC(=O)Nc1nc2ccc([N+](=O)[O-])cc2[nH]1
inactive: dose: 50.0 mg/kg/injection, schedule: Q01DX009 (ip), vehicle: suspension in saline 101 % of control | dose: 100.0 mg/kg/injection, schedule: Q01DX009 (ip), vehicle: suspension in saline 91 % of control | dose: 200.0 mg/kg/injection, schedule: Q01DX009 (ip), vehicle: suspension in saline 90 % of control | dose: 400.0 mg/kg/injection, schedule: Q01DX009 (ip), vehicle: suspension in saline 91 % of control

COc1ccc(C2c3cc4c(c(OC)c3CC3OCC(=O)C32)OCO4)cc1OC (stereo unspecified)
inactive: [4] 102 % of control | [5] 102 % of control | [12] 117 % of control

Cc1cc(C)c(NC(=O)NC(C)C)c(C)c1
inactive: [8] 100 % of control | [9] 90 % of control | [13] 87 % of control

c1ccc(COCCNCCOCc2ccccc2)cc1
inactive: [4] 100 % of control | [5] 90 % of control | [12] 103 % of control

CCNc1nc(NCC)nc(SC)n1
inactive: [11] 97 % of control | [1] 87 % of control | [2] 105 % of control
